Reference: ChEMBL document CHEMBL5390225, “Discovery and structural optimization of a new series of N-acyl-2-aminobenzothiazole as inhibitors of Zika virus” (Bioorg Med Chem, 2023)
pEC50, pIC50: −log10 of the molar value.

Legend:
Zika virus [1] = assay: (§1) Inhibition of Zika virus BeH823339 NS2B protease (49 to 95 residues) R96A mutant/NS3 protease (1 to 170 residues) R29G/ C80S/C143S mutant expressed in Escherichia coli BL21 (DE3) cells using Bz-Nle-Lys-Lys-Arg-AMC as a fluorogenic substrate at 100 uM by fluorescence-based analysis relative to control
BHK-21 = assay: Cytotoxicity against golden hamster BHK21-RepZIKV_IRES-Neo cells assessed as reduction in cell viability measured after 72 hrs by MTT assay; type: toxicity, cell-based, Mesocricetus auratus; details: bhk-21, 72 h
Zika virus [2] = assay: Antiviral activity against Zika virus infected in golden hamster BHK21-RepZIKV_IRES-Neo cells assessed as inhibition of viral replication by measuring reduction in renilla luciferase expression at 10 uM measured after 72 hrs by luciferase reporter gene assay relative to control; type: functional, Mesocricetus auratus; details: BHK-21
Zika virus [3] = assay: as §1, with “uM preincubated with enzyme for 10 mins” for “uM”
[4] = Cytotoxicity against African green monkey Vero E6 cells assessed as cell viability at 10 uM measured after 72 hrs by MTT assay relative to control; type: toxicity, cell-based, Vero C1008; details: chlorocebus sabaeus, read-out: Activity
[5] = Cytotoxicity against African green monkey Vero E6 cells assessed as cell viability at 2 uM measured after 72 hrs by MTT assay relative to control; type: toxicity, cell-based, Vero C1008; details: chlorocebus sabaeus, read-out: Activity
Zika virus [6] = assay: Antiviral activity against Zika virus PE243 infected in African green monkey Vero E6 cells assessed as inhibition of viral replication incubated for 72 hrs by immunofluorescence analysis; type: functional, organism-based; details: PE243, Vero C1008, 72 h
[7] = Selectivity index, ratio of CC50 for cytotoxicity against African green monkey Vero E6 cells to EC50 for antiviral activity against Zika virus PE243 infected in African green monkey Vero E6 cells; type: toxicity, cell-based, Vero C1008; details: read-out: Ratio CC50/EC50
[8] = Cytotoxicity against African green monkey Vero E6 cells assessed as reduction in cell viability measured after 72 hrs by MTT assay; type: toxicity, cell-based, Vero C1008; details: chlorocebus sabaeus
Zika virus [9] = assay: Antiviral activity against Zika virus PE243 infected in African green monkey Vero E6 cells assessed as inhibition of viral replication at 10 uM incubated for 72 hrs by immunofluorescence analysis; type: functional; details: PE243, Vero C1008
Nonstructural protein 3 = Nonstructural protein 3 (Zika virus, UniProt A0A024AXB9); assay: Inhibition of N-terminal His-tagged Zika virus NS2B protease (46 to 99 residues)/NS3 protease (1 to 187 residues) expressed in Escherichia coli Rosetta2(DE3) cells using Boc-Gly-Arg-Arg-AMC as substrate preincubated with enzyme for 10 mins followed by substrate addition and measured for 10 mins by fluorescence based analysis
Zika virus [10] = assay: Antiviral activity against Zika virus PE243 infected in African green monkey Vero E6 cells assessed as inhibition of viral replication at 2 uM incubated for 72 hrs by immunofluorescence analysis; type: functional; details: PE243, Vero C1008

Sequence of Nonstructural protein 3 (A0A024AXB9 whole entry, the tested form may be a part): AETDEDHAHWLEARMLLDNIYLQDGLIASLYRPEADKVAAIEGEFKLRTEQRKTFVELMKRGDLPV

COc1ccc(S(=O)(=O)Nc2ccc(C(=O)Nc3nc4ccccc4s3)cc2)cc1
inhibition (Zika virus [1]): 38% | Activity (BHK-21): Non-Toxic | inhibition at 10 µM (Zika virus [2]): 63.4% | inhibition (Zika virus [3]): 32% | viability at 72 h, 10 µM [4]: 94.8% | viability at 72 h, 2 µM [5]: 88.7% | pEC50 (Zika virus [6]): 4.95 | selectivity ratio [7]: 1.2 | CC50 at 72 h [8]: 13.3 µM | inhibition at 10 µM (Zika virus [9]): 74.4% | pIC50 (Nonstructural protein 3): 5.28 | inhibition at 2 µM (Zika virus [10]): 10.8%
